According to patent publication US8952157B2, “Apoptosis-inducing agents for the treatment of cancer and immune and autoimmune diseases” (AbbVie Inc., priority 2008, dated 2015):

What follows are molecules tested against GST-Bcl-2 (Homo sapiens (Human), UniProt P10415) (assay: Time Resolved-Fluorescence Resonance Energy Transfer (TR-FRET) Bcl-2 binding assay). Conditions: not given.
Summary of the method: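 Competition TR-FRET: GST-Bcl-2 with fluorescent Bak peptide probe and Tb-anti-GST antibody, compounds serially diluted from 50 μM (2× start, 10% DMSO).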

GST-Bcl-2, sequence (P10415 whole entry): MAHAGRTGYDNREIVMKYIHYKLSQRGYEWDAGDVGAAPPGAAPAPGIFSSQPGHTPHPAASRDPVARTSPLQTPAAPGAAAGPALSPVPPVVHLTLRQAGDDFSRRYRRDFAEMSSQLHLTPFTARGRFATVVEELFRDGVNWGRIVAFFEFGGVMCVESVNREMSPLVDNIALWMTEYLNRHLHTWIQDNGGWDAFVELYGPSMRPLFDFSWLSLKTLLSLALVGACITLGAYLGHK

Structure (SMILES) | Ki
CC1(C)CCC(CN2CCN(c3ccc(C(=O)NS(=O)(=O)c4ccc(N[C@H]5CC[C@H](N6CCOCC6)CC5)c([N+](=O)[O-])c4)c(Oc4cc5cc[nH]c5c(F)c4F)c3)CC2)=C(c2ccc(Cl)cc2)C1 [Example 235, Trans-4-(4-{[2-(4-chlorophenyl)-4,4-dimethylcyclohex-1-en-1-yl]methyl}piperazin-1-yl)-2-[(6,7-difluoro-1H-indol-5-yl)oxy]-N-({4-[(4-morpholin-4-ylcyclohexyl)amino]-3-nitrophenyl}sulfonyl)benzamide] | 0.039 nM

Same assay, conditions: GST-Bcl-2 1 nM, F-Bak peptide probe 100 nM, Tb-anti-GST antibody 1 nM; Ki by Wang's equation

Structure (SMILES) | Ki
CC1(C)CCC(CN2CCN(c3ccc(C(=O)NS(=O)(=O)c4ccc(N[C@@H]5CCN(Cc6cscn6)C[C@@H]5O)c([N+](=O)[O-])c4)c(Oc4cc5cc[nH]c5cc4F)c3)CC2)=C(c2ccc(Cl)cc2)C1 [Example 249, 4-(4-{[2-(4-chlorophenyl)-4,4-dimethylcyclohex-1-en-1-yl]methyl}piperazin-1-yl)-2-[(6-fluoro-1H-indol-5-yl)oxy]-N-[(4-{[(3S,4R)-3-hydroxy-1-(1,3-thiazol-4-ylmethyl)piperidin-4-yl]amino}-3-nitrophenyl)sulfonyl]benzamide] | 0.168 nM
Cc1nc2cc(Oc3cc(N4CCN(Cc5ccccc5-c5ccc(Cl)cc5)CC4)ccc3C(=O)NS(=O)(=O)c3ccc(NCCCN(C)C)c([N+](=O)[O-])c3)ccc2s1 [Example 25, 4-(4-((4′-chloro-1,1′-biphenyl-2-yl)methyl)piperazin-1-yl)-N-((4-((3-(dimethylamino)propyl)amino)-3-nitrophenyl)sulfonyl)-2-((2-methyl-1,3-benzothiazol-5-yl)oxy)benzamide] | 1.5 nM
CN(C)C(=O)CCc1ccccc1Oc1cc(N2CCN(Cc3ccccc3-c3ccc(Cl)cc3)CC2)ccc1C(=O)NS(=O)(=O)c1ccc(NCC2CCOCC2)c([N+](=O)[O-])c1 [Example 26, 4-(4-((4′-chloro-1,1′-biphenyl-2-yl)methyl)piperazin-1-yl)-2-(2-(3-(dimethylamino)-3-oxopropyl)phenoxy)-N-((3-nitro-4-((tetrahydro-2H-pyran-4-ylmethyl)amino)phenyl)sulfonyl)benzamide] | 0.511 nM
O=C(NS(=O)(=O)c1ccc(NCC2CCOCC2)c([N+](=O)[O-])c1)c1ccc(N2CCN(Cc3ccccc3-c3ccc(Cl)cc3)CC2)cc1Oc1ccc(-n2ccnc2)cc1 [Example 76, 4-(4-((4′-chloro-1,1′-biphenyl-2-yl)methyl)piperazin-1-yl)-2-(4-(1H-imidazol-1-yl)phenoxy)-N-((3-nitro-4-((tetrahydro-2H-pyran-4-ylmethyl)amino)phenyl)sulfonyl)benzamide] | 240 nM
CC1(C)CCC(CN2CCN(c3ccc(C(=O)NS(=O)(=O)c4ccc(NC[C@@H]5CCCOC5)c([N+](=O)[O-])c4)c(Oc4cc5cc[nH]c5cc4F)c3)CC2)=C(c2ccc(Cl)cc2)C1 [Example 258, 4-(4-{[2-(4-chlorophenyl)-4,4-dimethylcyclohex-1-en-1-yl]methyl}piperazin-1-yl)-2-[(6-fluoro-1H-indol-5-yl)oxy]-N-[(3-nitro-4-{[(3S)-tetrahydro-2H-pyran-3-ylmethyl]amino}phenyl)sulfonyl]benzamide] | 0.083 nM
CC1(C)CCC(CN2CCN(c3ccc(C(=O)NS(=O)(=O)c4ccc(NCC5CCOCC5)c([N+](=O)[O-])c4)c(Oc4ccc5[nH]cc(Cl)c5c4)c3)CC2)=C(c2ccc(Cl)cc2)C1 [Example 265, 2-[(3-chloro-1H-indol-5-yl)oxy]-4-(4-{[2-(4-chlorophenyl)-4,4-dimethylcyclohex-1-en-1-yl]methyl}piperazin-1-yl)-N-({3-nitro-4-[(tetrahydro-2H-pyran-4-ylmethyl)amino]phenyl}sulfonyl)benzamide] | 0.363 nM
CN1CCC(Nc2ccc(S(=O)(=O)NC(=O)c3ccc(N4CCN(CC5=C(c6ccc(Cl)cc6)CC(C)(C)CC5)CC4)cc3Oc3cccc(CO)c3)cc2[N+](=O)[O-])CC1 [Example 167, 4-(4-{[2-(4-chlorophenyl)-4,4-dimethylcyclohex-1-en-1-yl]methyl}piperazin-1-yl)-2-[3-(hydroxymethyl)phenoxy]-N-({4-[(1-methylpiperidin-4-yl)amino]-3-nitrophenyl}sulfonyl)benzamide] | 1.34 nM
CNC(=O)c1cccc(Oc2cc(N3CCN(Cc4ccccc4-c4ccc(Cl)cc4)CC3)ccc2C(=O)NS(=O)(=O)c2ccc(NCCCN3CCOCC3)c([N+](=O)[O-])c2)c1 [Example 103, 4-(4-((4′-chlorobiphenyl-2-yl)methyl)piperazin-1-yl)-2-(3-(methylcarbamoyl)phenoxy)-N-(4-(3-morpholinopropylamino)-3-nitrophenylsulfonyl)benzamide] | 6.75 nM
CC1(C)CCC(CN2CCN(c3ccc(C(=O)NS(=O)(=O)c4cnc(OCC5CCC(F)(F)CC5)c(Cl)c4)c(Oc4cnc(N)c(Cl)c4)c3)CC2)=C(c2ccc(Cl)cc2)C1 [Example 409, 2-[(6-amino-5-chloropyridin-3-yl)oxy]-N-({5-chloro-6-[(4,4-difluorocyclohexyl)methoxy]pyridin-3-yl}sulfonyl)-4-(4-{[2-(4-chlorophenyl)-4,4-dimethylcyclohex-1-en-1-yl]methyl}piperazin-1-yl)benzamide] | 0.686 nM
CC1(C)CCC(CN2CCN(c3ccc(C(=O)NS(=O)(=O)c4ccc(OCC5(F)CCOCC5)c(S(=O)(=O)C(F)(F)F)c4)c(Oc4cnc(N)c(Cl)c4)c3)CC2)=C(c2ccc(Cl)cc2)C1 [Example 348, 2-[(6-amino-5-chloropyridin-3-yl)oxy]-4-(4-{[2-(4-chlorophenyl)-4,4-dimethylcyclohex-1-en-1-yl]methyl}piperazin-1-yl)-N-({4-[(4-fluorotetrahydro-2H-pyran-4-yl)methoxy]-3-[(trifluoromethyl)sulfonyl]phenyl}sulfonyl)benzamide] | 3.78 nM
CN(C)C(=O)c1ccccc1Oc1cc(N2CCN(Cc3ccccc3-c3ccc(Cl)cc3)CC2)ccc1C(=O)NS(=O)(=O)c1ccc(NCC2CCOCC2)c([N+](=O)[O-])c1 [Example 30, 2-(5-(4-((4′-chlorobiphenyl-2-yl)methyl)piperazin-1-yl)-2-(3-nitro-4-((tetrahydro-2H-pyran-4-yl)methylamino)phenylsulfonylcarbamoyl)phenoxy)-N,N-dimethylbenzamide] | 0.071 nM
CC1(C)CCC(CN2CCN(c3ccc(C(=O)NS(=O)(=O)c4ccc(NCC5(F)CCOCC5)c([N+](=O)[O-])c4)c(Oc4cc5cc[nH]c5cc4F)c3)CC2)=C(c2ccc(Cl)cc2)C1 [Example 337, 4-(4-{[2-(4-chlorophenyl)-4,4-dimethylcyclohex-1-en-1-yl]methyl}piperazin-1-yl)-2-[(6-fluoro-1H-indol-5-yl)oxy]-N-[(4-{[(4-fluorotetrahydro-2H-pyran-4-yl)methyl]amino}-3-nitrophenyl)sulfonyl]benzamide] | 0.049 nM
CN1CCN(Nc2ccc(S(=O)(=O)NC(=O)c3ccc(N4CCN(CC5=C(c6ccc(Cl)cc6)CC(C)(C)OC5)CC4)cc3Oc3cccc(Cl)c3)cc2[N+](=O)[O-])CC1 [Example 185, 2-(3-chlorophenoxy)-4-(4-{[4-(4-chlorophenyl)-6,6-dimethyl-5,6-dihydro-2H-pyran-3-yl]methyl}piperazin-1-yl)-N-({4-[(4-methylpiperazin-1-yl)amino]-3-nitrophenyl}sulfonyl)benzamide] | 0.083 nM
